Data from patent publication US20020137929A1, “1 - (3-heterocyclylphenyl) isothiourea, -isourea, -guanidine and -amidine herbicidal agents” (Intellectual Property Department, BASF Aktiengesellschaft, priority 1998, published 2002).

Key:
[1] = system: ABUTH (Velvetleaf); experiment: Postemergence herbicidal evaluation; assay type: in vivo, Abutilon theophrasti; conditions: postemergence
How it was run: (§1)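 Visual 0–9 rating versus control (stand, vigor, malformation, size, chlorosis, overall appearance), taken four to five weeks post-spray. Two-week-old seedlings received roughly 0.0156–0.500 kg/ha active in acetone/water (50/50) with 0.5% TWEEN 20 via nozzle at 40 psi.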

[2] = system: CHEAL (Lambsquarters, Common); experiment: Preemergence herbicidal evaluation; assay type: in vivo, Chenopodium album; conditions: preemergence, rated 4-5 weeks after treatment, 0-9 scale
How it was run: (§2)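 Visual 0-9 rating vs control (stand, vigor, malformation, size, chlorosis, overall appearance), scored 4-5 wk after spraying. Seeded soil cups were treated preemergence with compound in aqueous acetone, ~0.0156-0.500 kg/ha equivalent.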

[3] = system: ZEAMX (Corn, Field); experiment: Preemergence herbicidal evaluation; assay type: in vivo, Zea mays; conditions: preemergence, rated 4-5 weeks after treatment, 0-9 scale
How it was run: as §2

[4] = system: SETVI (Foxtail, Green); experiment: Postemergence herbicidal evaluation; assay type: in vivo, Setaria viridis; conditions: postemergence
How it was run: as §1

[5] = system: CYPIR (Rice Flatsedge); experiment: Postemergence weed control under flooded paddy conditions; assay type: in vivo, Cyperus iria; conditions: postemergence weeds, rated 3 to 4 weeks after treatment
How it was run: (§3)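 Herbicidal effect is judged by eye on a 0–9 scale versus control, 3–4 weeks after dosing. Dosing is into flood water kept 1.5–3 cm over the soil, at about 0.0313–0.500 kg/ha in aqueous/acetone 50/50 v/v, on 3–5 cm weeds and 1.5–2.5-leaf rice seedlings.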

[6] = system: ORYSAT (Rice, Tebonnet); experiment: Postemergence herbicidal evaluation; assay type: in vivo, Oryza sativa, (L.) Tebonnet; conditions: postemergence
How it was run: as §1

[7] = system: CHEAL (Lambsquarters, Common); experiment: Postemergence herbicidal evaluation; assay type: in vivo, Chenopodium album; conditions: postemergence
How it was run: as §1

[8] = system: ECHCG (Barnyardgrass); experiment: Preemergence herbicidal evaluation; assay type: in vivo, Echinochloa crus-galli; conditions: preemergence, rated 4-5 weeks after treatment, 0-9 scale
How it was run: as §2

[9] = system: CYPSE (Flatsedge); experiment: Postemergence weed control under flooded paddy conditions; assay type: in vivo, Cyperus serotinus; conditions: postemergence weeds, rated 3 to 4 weeks after treatment
How it was run: as §3

[10] = system: IPOHE (Morningglory, Ivyleaf); experiment: Preemergence herbicidal evaluation; assay type: in vivo, Ipomoea hederacea; conditions: preemergence, rated 4-5 weeks after treatment, 0-9 scale
How it was run: as §2

[11] = system: GLXMAW (Soybean, Williams); experiment: Preemergence herbicidal evaluation; assay type: in vivo, Glycine max, (L.) Merr. cv Williams; conditions: preemergence, rated 4-5 weeks after treatment, 0-9 scale
How it was run: as §2

[12] = system: IPOHE (Morningglory, Ivyleaf); experiment: Postemergence herbicidal evaluation; assay type: in vivo, Ipomoea hederacea; conditions: postemergence
How it was run: as §1

[13] = system: ECHCG (Barnyardgrass); experiment: Postemergence herbicidal evaluation; assay type: in vivo, Echinochloa crus-galli; conditions: postemergence
How it was run: as §1

[14] = system: ABUTH (Velvetleaf); experiment: Preemergence herbicidal evaluation; assay type: in vivo, Abutilon theophrasti; conditions: preemergence, rated 4-5 weeks after treatment, 0-9 scale
How it was run: as §2

[15] = system: ZEAMX (Corn, Field); experiment: Postemergence herbicidal evaluation; assay type: in vivo, Zea mays; conditions: postemergence
How it was run: as §1

[16] = system: TRZAWR (Wheat, Winter, cv Riband); experiment: Preemergence herbicidal evaluation; assay type: in vivo, Triticum aestivum; conditions: preemergence, rated 4-5 weeks after treatment, 0-9 scale
How it was run: as §2

[17] = system: CASOB (Sicklepod); experiment: Preemergence herbicidal evaluation; assay type: in vivo, Cassia obtusifolia; conditions: preemergence, rated 4-5 weeks after treatment, 0-9 scale
How it was run: as §2

CCOC(=O)CN1C(=O)C(CC(=O)NO)S/C1=N/c1cc(-n2c(=O)cc(C(F)(F)F)n(C)c2=O)c(F)cc1Cl (stereo not drawn) [Compound 98, Ethyl 2-{{2-chloro-5-[3,6-dihydro-3-methyl-2,6-dioxo-4-(trifluoromethyl)-1(2H)-pyrimidinyl]-4-fluorophenyl}imino}-5-[(hydroxycarbamoyl)methyl]-4-oxo-3-thiazolidineacetate]
ABUTH herbicidal rating ([1]; rate 0.0156 kg/ha): 2.0
ABUTH herbicidal rating ([1]; rate 0.0313 kg/ha): 7.0
ABUTH herbicidal rating ([1]; rate 0.0625 kg/ha): 9.0
ABUTH herbicidal rating ([1]; rate 0.1250 kg/ha): 9.0
CHEAL rating ([2]; 0.0156 kg/ha): 0.0
CHEAL rating ([2]; 0.0313 kg/ha): 2.0
CHEAL rating ([2]; 0.0625 kg/ha): 5.0
CHEAL rating ([2]; 0.1250 kg/ha): 7.0
CHEAL rating ([2]; 0.2500 kg/ha): 9.0
CHEAL rating ([2]; 0.5000 kg/ha): 9.0
ZEAMX rating ([3]; 0.0156 kg/ha): 0.0
ZEAMX rating ([3]; 0.0313 kg/ha): 0.0
ZEAMX rating ([3]; 0.0625 kg/ha): 0.0
ZEAMX rating ([3]; 0.1250 kg/ha): 0.0
ZEAMX rating ([3]; 0.2500 kg/ha): 4.0
ZEAMX rating ([3]; 0.5000 kg/ha): 6.0
SETVI herbicidal rating ([4]; rate 0.0156 kg/ha): 1.0
SETVI herbicidal rating ([4]; rate 0.0313 kg/ha): 0.0
SETVI herbicidal rating ([4]; rate 0.0625 kg/ha): 1.0
SETVI herbicidal rating ([4]; rate 0.1250 kg/ha): 2.0
Herbicidal rating CYPIR ([5]; Rate 0.0313 kg/ha): 9.0
Herbicidal rating CYPIR ([5]; Rate 0.0625 kg/ha): 9.0
Herbicidal rating CYPIR ([5]; Rate 0.1250 kg/ha): 9.0
Herbicidal rating CYPIR ([5]; Rate 0.2500 kg/ha): 9.0
ORYSAT herbicidal rating ([6]; rate 0.0156 kg/ha): 1.5
ORYSAT herbicidal rating ([6]; rate 0.0313 kg/ha): 2.5
ORYSAT herbicidal rating ([6]; rate 0.0625 kg/ha): 2.5
ORYSAT herbicidal rating ([6]; rate 0.1250 kg/ha): 2.0
CHEAL herbicidal rating ([7]; rate 0.0156 kg/ha): 0.0
CHEAL herbicidal rating ([7]; rate 0.0313 kg/ha): 1.0
CHEAL herbicidal rating ([7]; rate 0.0625 kg/ha): 3.0
CHEAL herbicidal rating ([7]; rate 0.1250 kg/ha): 9.0
ECHCG rating ([8]; 0.0156 kg/ha): 0.0
ECHCG rating ([8]; 0.0313 kg/ha): 0.0
ECHCG rating ([8]; 0.0625 kg/ha): 0.0
ECHCG rating ([8]; 0.1250 kg/ha): 1.0
ECHCG rating ([8]; 0.2500 kg/ha): 1.0
ECHCG rating ([8]; 0.5000 kg/ha): 2.0
Herbicidal rating CYPSE ([9]; Rate 0.0313 kg/ha): 2.0
Herbicidal rating CYPSE ([9]; Rate 0.0625 kg/ha): 3.0
Herbicidal rating CYPSE ([9]; Rate 0.1250 kg/ha): 4.0
Herbicidal rating CYPSE ([9]; Rate 0.2500 kg/ha): 4.0
IPOHE rating ([10]; 0.0156 kg/ha): 0.0
IPOHE rating ([10]; 0.0313 kg/ha): 0.0
IPOHE rating ([10]; 0.0625 kg/ha): 1.0
IPOHE rating ([10]; 0.1250 kg/ha): 3.0
IPOHE rating ([10]; 0.2500 kg/ha): 4.0
IPOHE rating ([10]; 0.5000 kg/ha): 9.0
GLXMAW rating ([11]; 0.0156 kg/ha): 0.0
GLXMAW rating ([11]; 0.0313 kg/ha): 0.0
GLXMAW rating ([11]; 0.0625 kg/ha): 1.0
GLXMAW rating ([11]; 0.1250 kg/ha): 1.0
GLXMAW rating ([11]; 0.2500 kg/ha): 4.0
GLXMAW rating ([11]; 0.5000 kg/ha): 5.0
IPOHE herbicidal rating ([12]; rate 0.0156 kg/ha): 3.0
IPOHE herbicidal rating ([12]; rate 0.0313 kg/ha): 3.0
IPOHE herbicidal rating ([12]; rate 0.0625 kg/ha): 9.0
IPOHE herbicidal rating ([12]; rate 0.1250 kg/ha): 9.0
ECHCG herbicidal rating ([13]; rate 0.0156 kg/ha): 0.0
ECHCG herbicidal rating ([13]; rate 0.0313 kg/ha): 0.0
ECHCG herbicidal rating ([13]; rate 0.0625 kg/ha): 1.0
ECHCG herbicidal rating ([13]; rate 0.1250 kg/ha): 1.0
ABUTH rating ([14]; 0.0156 kg/ha): 0.0
ABUTH rating ([14]; 0.0313 kg/ha): 0.0
ABUTH rating ([14]; 0.0625 kg/ha): 2.0
ABUTH rating ([14]; 0.1250 kg/ha): 6.0
ABUTH rating ([14]; 0.2500 kg/ha): 6.0
ABUTH rating ([14]; 0.5000 kg/ha): 9.0
ZEAMX herbicidal rating ([15]; rate 0.0156 kg/ha): 3.0
ZEAMX herbicidal rating ([15]; rate 0.0313 kg/ha): 4.0
ZEAMX herbicidal rating ([15]; rate 0.0625 kg/ha): 4.0
ZEAMX herbicidal rating ([15]; rate 0.1250 kg/ha): 5.0
TRZAWR rating ([16]; 0.0156 kg/ha): 0.0
TRZAWR rating ([16]; 0.0313 kg/ha): 0.0
TRZAWR rating ([16]; 0.0625 kg/ha): 0.0
TRZAWR rating ([16]; 0.1250 kg/ha): 0.0
TRZAWR rating ([16]; 0.2500 kg/ha): 1.0
TRZAWR rating ([16]; 0.5000 kg/ha): 3.0
CASOB rating ([17]; 0.0156 kg/ha): 0.0
CASOB rating ([17]; 0.0313 kg/ha): 0.0
CASOB rating ([17]; 0.0625 kg/ha): 0.0
CASOB rating ([17]; 0.1250 kg/ha): 1.0
CASOB rating ([17]; 0.2500 kg/ha): 2.0
CASOB rating ([17]; 0.5000 kg/ha): 7.0
